What was measured:
Type in all cases: cell-based
[1] = test system: H9 human embryonic stem cells; test: BrdU incorporation assay in human embryonic stem cells in mTeSR1
Procedure: For 5-bromo)-2-deoxyuridine (BrdU; BD Pharmingen, San Diego) incorporation assays, human embryonic stem cells were cultured on Matrigel-coated 4-well LabTec chamber slides for 4 days.
Specifically, for BrdU incorporation, cells were incubated in the presence of 30 μM BrdU at 37° C. for 1 hour. After washing with PBS, the cells were fixed with 4% paraformaldehyde for 15 minutes and reacted in 1N HCl at room temperature for 15 minutes. The sample was washed and reacted with 0.1 M sodium tetraborate for 15 minutes. After washing, the cells were reacted with anti-BrdU antibody in 3% BSA-containing PBS for 1 hour, and then reacted with FITC-conjugated secondary antibody for 30 minutes.
In order to verify the effect of nicotinamide on the proliferation of pluripotent stem cells, a BrdU incorporation assay was performed. Nicotinamide was added to mTeSR1 (CDM) at various concentrations, and the effects thereof were examined.

[2] = test system: human fibroblasts transfected with reprogramming factor OSKM; test: Senescence-associated beta-galactosidase staining and senescence-associated DNA damage staining during reprogramming; settings: for decrease in number of senescent cells: 10 mM
Procedure: On day 26 of induction of reprogramming, the cells were fixed with a fixation solution at room temperature for 10 minutes, and then stained with a β-galactosidase solution at room temperature for 15 minutes. Next, the DNA was stained with DAPI (4′,6-diamidino-2-phenylindole) for 5 minutes, and then the cells were imaged by phase-contrast and fluorescence microscopy. The number of cells having senescence (green) damaged DNA (blue combined points) was counted and quantified relative to the number of normal cells.

[3] = test system: human fibroblasts and human fibroblasts transfected with reprogramming factors; test: Cell growth and proliferation during reprogramming (viable cell count, BrdU, live-cell imaging)
Procedure: Human fibroblasts were seeded in a 6-well culture dish at a density of about 1×10^5 cells per well. The seeded cells were cultured for 26 days under the indicated culture conditions. To count the cell number, the cells were washed with PBS and treated with trypsin. The cell suspension was mixed with 0.4% (wt/vol) trypan blue solution, and the number of viable cells was counted on day 19 and day 26 using a hemocytometer (FIG. 10). Each experiment was performed in triplicate. Specifically, for BrdU incorporation, cells were incubated in the presence of 30 μM BrdU at 37° C. for 1 hour. After washing with PBS, the cells were fixed with 4% paraformaldehyde for 15 minutes and reacted in 1N HCl at room temperature for 15 minutes. The sample was washed and reacted with 0.1 M sodium tetraborate for 15 minutes. After washing, the cells were reacted with anti-BrdU antibody in 3% BSA-containing PBS for 1 hour, and then reacted with FITC-conjugated secondary antibody for 30 minutes. […] On day 12 of induction of reprogramming, virus expressing the cell-cycle regulators Geminin-GFP (green) and Cdt1-RFP (red) was introduced into the cells for 2 hours while slowly shaking the cells, and then an accelerator was added to the cells, followed by culture for 1 hour. The medium was replaced with fresh medium, and the cells were further cultured overnight and imaged with a fluorescence microscope. The images were obtained for at least 4 sections per sample, and the number of resting-stage cells (red) and dividing cells (green) was counted. The ratio of dividing cells was quantified by the green/red ratio.

[4] = test system: human embryonic stem cells and human induced pluripotent stem cells; test: Maintenance of undifferentiated state of pluripotent stem cells (morphology, AP staining); settings: for undifferentiated state in UM: 0.1 mM nicotinamide added to UM
Excerpt: Human embryonic stem cells (hESC) H9 (NIH Code, WA09; WiCell Research Institute, Madison, Wis.) and H1 (NIH Code, WA01; WiCell Research Institute) and induced pluripotent stem cells (hiPSC) were each cultured with hESC culture medium (unconditioned medium; UM) or MEF-CM (conditioned medium) on γ-irradiated MEFs (mouse embryonic fibroblasts) or on plates coated with Matrigel (BD Biosciences, Franklin Lakes, N.J.). The cultured human embryonic stem cells and induced pluripotent stem cells were treated with collagenase IV (1 mg/ml; Invitrogen) or dispase (1 mg/ml; Invitrogen) once a week and subcultured. MEF-CM was prepared as γ-irradiated MEF according to a known method (Xu C. Nat Biotechnol 19, 971-974) and supplemented with 8 ng/ml of bFGF. UM contained 80% DMEM/F12, 20% knockout serum replacement (KSR, Invitrogen, Carlsbad, Calif.), 1% non-essential amino acids (NEAA, Invitrogen), 1 mM L-glutamine (Invitrogen), 0.1 mM β-mercaptoethanol (Sigma, St. Louis, Mo.) and 6 ng/ml bFGF (basic fibroblast growth factor, Invitrogen). Particularly, for culture in the absence of feeder cells and serum, human embryonic stem cells and human induced pluripotent stem cells were cultured in mTeSR1 medium (StemCell Technologies). Human newborn foreskin fibroblasts (hFF, ATCC, catalog number CRL-2097; American Type Culture Collection, Manassas, Va.) were cultured in a DMEM medium containing 10% FBS (fetal bovine serum, Invitrogen), 1% non-essential amino acids, 1 mM L-glutamine and 0.1 mM β-mercaptoethanol.
AP staining was performed using a commercial AP kit (Sigma) according to the manufacturer's instruction. Images of AP-positive cells were recorded with HP Scanjet G4010. Also, bight field images were obtained with an Olympus microscope (IX51, Olympus, Japan).
In order to verify the effect of nicotinamide on the maintenance of undifferentiated state of pluripotent stem cells, the present inventors performed the following experiment. While human embryonic stem cells and human pluripotent stem cells were cultured in MEF-CM or UM on feeder-free Matrigel, various NAD precursors including nicotinamide were added to the stem cells, and then the effects of the NAD precursors on the stem cells were verified by examining the morphological change and the expression pattern of AP that is a human embryonic stem cell-specific marker.
In addition, in order to examine the effects of nicotinamide at various concentrations, various concentrations of nicotinamide were added to UM, and the degrees of maintenance of undifferentiation of human embryonic stem cells and human induced pluripotent stem cells, which are pluripotent stem cells, were examined. […] However, it was shown that the addition of a low concentration (<0.01 mM) or high concentration (>5 mM) of nicotinamide could not maintain the undifferentiated state of pluripotent stem cells (FIG. 30).
The effect of nicotinamide effective for maintaining the undifferentiated state of human embryonic stem cells and human induced pluripotent stem cells, which are pluripotent stem cells, was verified under various conditions. […] In order to eliminate the use of feeder cell-derived factors and animal serum and ensure culture conditions including a medium (CDM) whose components are known, various concentrations of nicotinamide were added to mTeSR1 (CDM) without feeder cells, and the effects thereof were examined. As a result, it could be seen that the addition of 0.1 mM of nicotinamide was effective for maintaining the undifferentiated state of various human embryonic stem cell lines (H1 and H9) and the human induced pluripotent stem cell line (hiPS) (FIG. 31).

NC(=O)c1cccnc1 [nicotinamide]
increase in BrdU incorporation ([1]; 0.1 mM in mTeSR1, compared to cells cultured in mTeSR1): 1.6 times | increase in BrdU incorporation ([1]; 1 mM in mTeSR1, compared to cells cultured in mTeSR1): 1.2 times | decrease in cellular senescence-associated DNA damage ([2]; 1 mM, compared to control group): 83.0±0.5% | decrease in ratio of cells stained with senescence-associated beta-galactosidase ([2]; 1 mM, day 19, compared to untreated group): 88.1±1.4% | decrease in ratio of cells stained with senescence-associated beta-galactosidase ([2]; 1 mM, day 26, compared to untreated group): 76.9±2.5% | decrease in number of senescent cells ([2]; day 19, compared to control group): 76.1±1.4% | decrease in number of senescent cells ([2]; day 21, compared to control group): 30.8±9.0% | ratio of proliferating cells (live cell imaging) ([3]; 1 mM, day 12 of induction of reprogramming): increased | number of healthy viable cells ([3]; 0.1, 1 and 10 mM, days 19 and 26, concentration-dependent): increased | number of actually dividing cells incorporated with BrdU ([3]; 0.1-1 mM, day 19 of induction of reprogramming): significantly increased | optimal nicotinamide concentration for promoting cell growth ([3]; culture process for inducing reprogramming): 1 mM | number of AP-positive cells when feeder cells were used ([4]; 0.1 mM): most increased | undifferentiated state in UM [4]: maintained in an undifferentiated state | undifferentiated state in UM ([4]; listed as Nam): most effectively maintained | maintaining the undifferentiated state in mTeSR1 (CDM) without feeder cells ([4]; 0.1 mM, H1, H9 and hiPS): effective | induction of differentiation in UM, among NAD+ precursors and NAD+ ([4]; H9 in UM treated with nicotinamide (FIG. 29)): most effectively inhibited | high concentration that could not maintain the undifferentiated state ([4]; UM): > 5 mM | low concentration that could not maintain the undifferentiated state ([4]; UM): < 0.01 mM | morphology of hESCs cultured in UM, in comparison with other NAD precursors ([4]; UM containing nicotinamide (1 mM), 6 days, feeder-free Matrigel): showed the morphology of undifferentiated human embryonic stem cells | nicotinamide concentration in UM conserving undifferentiated morphology and positive AP expression ([4]; hESCs and hiPSCs cultured in UM): 0.1-1 mM

From patent publication US20150072416A1, “METABOLITE FOR IMPROVING PRODUCTION, MAINTENANCE AND PROLIFERATION OF PLURIPOTENT STEM CELLS, COMPOSITION COMPRISING THE SAME, AND METHOD OF CULTURING PLURIPOTENT STEM CELL USING THE SAME” (KOREA RESEARCH INSTITUTE OF BIOSCIENCE AND BIOTENOLOGY, priority 2012, published 2015)
